Experimental data from patent publication US11021457B2, “Class of isoindolone-imide ring-1,3-dione-2-ene compounds, composition and use thereof” (WIGEN BIOMEDICINE TECHNOLOGY (SHANGHAI) CO., LTD., priority 2017, dated 2021).

How the values were obtained:
SU-DHL6 = test: Inhibition of tumor cell proliferation, CellTiter-Glo, SU-DHL6; format: cell-based; conditions: compound concentration 50 μM, 72 hours
Outline: (§1)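 Compound tested at 50 μM for 72 h, read by CellTiter-Glo. Survival rate = (treated−blank)/(control−blank) RLU ×100, binned as +++ ≤30%, ++ >30-≤60%, + 60-<90%. Seeding 2000-10000 cells/well depending on growth rate.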

BxPC-3 = test: Inhibition of tumor cell proliferation, CellTiter-Glo, BxPC-3; format: cell-based; conditions: compound concentration 50 μM, 72 hours
Outline: as §1

MDA-MB-453 = test: Inhibition of tumor cell proliferation, CellTiter-Glo, MDA-MB-453; format: cell-based; conditions: compound concentration 50 μM, 72 hours
Outline: as §1

A549 = test: Inhibition of tumor cell proliferation, CellTiter-Glo, A549; format: cell-based; conditions: compound concentration 50 μM, 72 hours
Outline: as §1

LC3B = LC3B (Homo sapiens (Human), UniProt Q9GZQ8); test: Fluorescence polarization experiment targeting LC3B (GST-LC3B with FITC-labeled peptide); conditions: GST-LC3B 180 nM, FITC-labeled peptide 18 nM, 25° C.
K562 = test: Inhibition of tumor cell proliferation, CellTiter-Glo, K562; format: cell-based; conditions: compound concentration 50 μM, 72 hours
Outline: as §1

RPMI-8226 = test: Inhibition of tumor cell proliferation, CellTiter-Glo, RPMI-8226; format: cell-based; conditions: compound concentration 50 μM, 72 hours
Outline: as §1

Row | SMILES | Inhibitory activity against proliferation (cell survival rate) SU-DHL6 (SU-DHL6) | Inhibitory activity against proliferation (cell survival rate) BxPC-3 (BxPC-3) | Inhibitory activity against proliferation (cell survival rate) MDA-MB-453 (MDA-MB-453) | Inhibitory activity against proliferation (cell survival rate) A549 (A549) | IC50 (LC3B) | Inhibitory activity against proliferation (cell survival rate) K562 (K562) | Inhibitory activity against proliferation (cell survival rate) RPMI-8226 (RPMI-8226)
1 | O=C1CCC(N2Cc3c(NC=C4C(=O)CC(c5c[nH]c6cccc(Cl)c56)CC4=O)cccc3C2=O)C(=O)N1 (stereo not drawn) [Compound 150] | +++ (survival rate (%)≤30) | + (60≤survival rate (%)<90) | +++ (survival rate (%)≤30) | +++ (survival rate (%)≤30) | < 3 µM | ++ (30<survival rate (%)≤60) | ++ (30<survival rate (%)≤60)
2 | O=C1CCC(N2Cc3c(NC=C4C(=O)CC(c5cccc(Cl)c5Cl)CC4=O)cccc3C2=O)C(=O)N1 (stereo not drawn) [Compound 7] | +++ (survival rate (%)≤30) | + (60≤survival rate (%)<90) | ++ (30<survival rate (%)≤60) | ++ (30<survival rate (%)≤60) | < 3 µM | ++ (30<survival rate (%)≤60) | ++ (30<survival rate (%)≤60)
3 | O=C1CCC(N2Cc3c(NC=C4C(=O)CC(c5c[nH]c6ccccc56)CC4=O)cccc3C2=O)C(=O)N1 (stereo not drawn) [Compound 38] | +++ (survival rate (%)≤30) | ++ (30<survival rate (%)≤60) | +++ (survival rate (%)≤30) | +++ (survival rate (%)≤30) | < 3 µM | +++ (survival rate (%)≤30) | +++ (survival rate (%)≤30)
4 | O=C1CCC(N2Cc3c(NC(=O)c4ccc(NC=C5C(=O)CC(c6ccccc6)CC5=O)cc4)cccc3C2=O)C(=O)N1 (stereo not drawn) [Compound 50] | +++ (survival rate (%)≤30) | + (60≤survival rate (%)<90) | + (60≤survival rate (%)<90) | + (60≤survival rate (%)<90) | 15 to 100 µM | + (60≤survival rate (%)<90) | ++ (30<survival rate (%)≤60)
5 | O=C1CCC(N2Cc3c(NC=C4C(=O)CC(c5cc(C(F)(F)F)ccc5Cl)CC4=O)cccc3C2=O)C(=O)N1 (stereo not drawn) [Compound 144] | +++ (survival rate (%)≤30) | + (60≤survival rate (%)<90) | +++ (survival rate (%)≤30) | + (60≤survival rate (%)<90) | < 3 µM | +++ (survival rate (%)≤30) | +++ (survival rate (%)≤30)
6 | O=C1CCC(N2Cc3c(NC=C4C(=O)CC(c5c(Br)ccc6[nH]cc(C(F)(F)F)c56)CC4=O)cccc3C2=O)C(=O)N1 (stereo not drawn) [Compound 16] | + (60≤survival rate (%)<90) | + (60≤survival rate (%)<90) | + (60≤survival rate (%)<90) | + (60≤survival rate (%)<90) | < 3 µM | + (60≤survival rate (%)<90) | +++ (survival rate (%)≤30)
7 | O=C1CCC(N2Cc3c(NC=C4C(=O)CC(c5c(F)cccc5Cl)CC4=O)cccc3C2=O)C(=O)N1 (stereo not drawn) [Compound 147] | +++ (survival rate (%)≤30) | ++ (30<survival rate (%)≤60) | ++ (30<survival rate (%)≤60) | +++ (survival rate (%)≤30) | < 3 µM | +++ (survival rate (%)≤30) | +++ (survival rate (%)≤30)
8 | O=C1CCC(N2Cc3c(NC=C4C(=O)CC(c5cccc(Cl)c5F)CC4=O)cccc3C2=O)C(=O)N1 (stereo not drawn) [Compound 146] | +++ (survival rate (%)≤30) | + (60≤survival rate (%)<90) | +++ (survival rate (%)≤30) | + (60≤survival rate (%)<90) | < 3 µM | +++ (survival rate (%)≤30) | +++ (survival rate (%)≤30)
9 | O=C1CCC(N2Cc3c(NC=C4C(=O)CC(c5cccc6[nH]cc(C(F)(F)F)c56)CC4=O)cccc3C2=O)C(=O)N1 (stereo not drawn) [Compound 15] | ++ (30<survival rate (%)≤60) | ++ (30<survival rate (%)≤60) | + (60≤survival rate (%)<90) | + (60≤survival rate (%)<90) | < 3 µM | + (60≤survival rate (%)<90) | +++ (survival rate (%)≤30)
10 | COc1ccc(C2CC(=O)C(=CNc3cccc4c3CN(C3CCC(=O)NC3=O)C4=O)C(=O)C2)c(F)c1F (stereo not drawn) [Compound 153] | +++ (survival rate (%)≤30) | + (60≤survival rate (%)<90) | +++ (survival rate (%)≤30) | +++ (survival rate (%)≤30) | < 3 µM | ++ (30<survival rate (%)≤60) | ++ (30<survival rate (%)≤60)
11 | CC(C)[C@H](NC=C1C(=O)CC(c2ccccc2)CC1=O)C(=O)N[C@@H](CCCNC(N)=O)C(=O)Nc1cccc2c1CN(C1CCC(=O)NC1=O)C2=O (stereo partly drawn) [Compound 59] | +++ (survival rate (%)≤30) | ++ (30<survival rate (%)≤60) | + (60≤survival rate (%)<90) | +++ (survival rate (%)≤30) | 100 to 1000 µM | +++ (survival rate (%)≤30) | +++ (survival rate (%)≤30)
12 | O=C1CCC(N2Cc3c(NC=C4C(=O)CC(c5cc6[nH]ccc6cc5Cl)CC4=O)cccc3C2=O)C(=O)N1 (stereo not drawn) [Compound 151] | +++ (survival rate (%)≤30) | + (60≤survival rate (%)<90) | +++ (survival rate (%)≤30) | + (60≤survival rate (%)<90) | < 3 µM | +++ (survival rate (%)≤30) | +++ (survival rate (%)≤30)
